From patent US7122666B2, “Heteroaryl-substituted pyrrole derivatives, their preparation and their therapeutic uses” (Sankyo Company, Limited, priority 1999, dated 2006) come the findings set out here.

Read-outs that look alike come from different tables or passages of the source.

The test system of test [1] is TNFα production in human whole blood. Nature of the test: Inhibition of the production of TNFα in vitro in human whole blood (Test Examples 1 and 1′). The test is classed as cell-based. The settings on record: 6 hours at 37° C., plasma TNFα by ELISA. As to the method: (§1) Inhibition of the Production of the Cytokines IL-1β and TNFα in Vitro in Human Whole Blood
(§2) This test was performed according to the method of Hartman, et al. [D. A. Hartman, S. J. Ochalski and R. P. Carlson; The effects of anti-inflammatory and antiallergic drugs on cytokine release after stimulation of human whole blood by lipopolysaccharide and zymosan A: Inflamm. Res., 44, 269 (1995)].
(§3) Peripheral blood samples were collected in the presence of heparin from healthy adult volunteers. 1000 μl of whole blood were added to an Eppendorf tube to which 2 μl of a dimethyl sulfoxide solution of the test compound had been added in advance, after which 10 μl of lipopolysaccharide (E. coli 026: B6 origin, Difco) were added as a stimulant (final concentration of said lipopolysaccharide: 10 μg/ml). This was mixed well and then incubated for 6 hours at 37° C. in the presence of 5% CO2. At the end of the incubation, the mixture was cooled to 4° C. to stop the reaction, followed immediately by centrifuging for 5 minutes at 14,000 rpm to separate and collect the supernatant plasma. The IL-1β and TNFα produced and released into the plasma were measured using a commercially available enzyme immunoassay (ELISA) kit [Cayman (IL-1β) and Genzyme (TNFα)]. The procedure was also repeated in the absence of test compound. The inhibitory effect [IC50 (μM)] on the production of IL-1β and TNFα was determined from the amounts of the cytokines produced in the presence and absence of the test compound.
(§4) Inhibition of the Production of the Cytokines IL-1β and TNFα In Vitro in Human Whole Blood
as §3, with “O26:” for “026:”, “plasma” for “plasma.”, “kits” for “kit”, “determined by the method of least squares” for “determined”
Background: In an ELISA, binding on a coated surface is turned into a signal by an enzyme label.

Test [2] has as its system IL-1β production in human whole blood. Kind of test: Inhibition of the production of IL-1β in vitro in human whole blood (Test Examples 1 and 1′). It is filed as cell-based. The settings on record: Table 8′, lipopolysaccharide 10 μg/ml, 6 hours at 37° C., plasma IL-1β by ELISA, least squares, read-out: Inhibitory Effect on IL-1β Production (in vitro) IC50. Here is the method:
as §1, §2, §3, §4
as §3, with “O26:” for “026:”, “plasma” for “plasma.”, “kits” for “kit”, “determined by the method of least squares” for “determined”

[3] abbreviates: Table 3, lipopolysaccharide 10 μg/ml, read-out: Inhibitory Effect on TNFα Production [IC50 (μM)].
Setting [4] is: Table 7′, lipopolysaccharide 10 μg/ml, least squares, read-out: Inhibitory Effect on TNFα Production (in vitro) IC50.

Turning to `Fc1ccc(-c2[nH]cc(C3=CC4CCC(C3)N4)c2-c2ccncc2)cc1` (racemic) [Example 45, (±)-4-(8-Azabicyclo[3.2.1]oct-2-en-3-yl)-2-(4-fluorophenyl)-3-(pyridin-4-yl)-1H-pyrrole], the IC50 (as a rule, the concentration at which inhibition is half-maximal) in test [1] (setting [3]) came out at 0.14 µM.
Turning to `Fc1ccc(-c2[nH]cc(C3=CC4CC5(CCCC5)CN4CC3)c2-c2ccncc2)cc1` (racemic) [Example 47′, (±)-4-[Cyclopentanespiro-2′-(1′,2′,3′,5′,6′,8a′-hexahydroindolizin)-7′-yl]-2-(4-fluorophenyl)-3-(pyridin-4-yl)-1H-pyrrole], the figures for the concentration for half-maximal inhibition (IC50) in test [2] and in test [1] (setting [4]) were 33 nM and 0.01 µM, respectively.
On to `Fc1ccc(-c2[nH]cc(C3=CC4CCCN4CC3)c2-c2ccncc2)cc1` (racemic) [Example 60, (±)-2-(4-Fluorophenyl)-4-(1,2,3,5,6,8a-hexahydroindolizin-7-yl)-3-(pyridin-4-yl)-1H-pyrrole], for which the IC50 in test [1] (setting [3]) worked out at 0.047 µM.
As to `CCCN1CCC(c2c[nH]c(-c3ccc(F)cc3)c2-c2ccncc2)=CC1C` (racemic) [Example 85, (±)-2-(4-Fluorophenyl)-4-(6-methyl-1-propyl-1,2,3,6-tetrahydropyridin-4-yl)-3-(pyridin-4-yl)-1H-pyrrole], the half-maximal inhibitory concentration (IC50) in test [1] (setting [3]) is 0.44 µM.
For `CCCN1CC=C(c2c[nH]c(-c3ccc(F)cc3)c2-c2ccncc2)CC1C` (racemic) [Example 86, (±)-2-(4-Fluorophenyl)-4-(2-methyl-1-propyl-1,2,3,6-tetrahydropyridin-4-yl)-3-(pyridin-4-yl)-1H-pyrrole], the half-maximal inhibitory concentration (IC50) in test [1] (setting [3]) was found to be 0.29 µM.
For `Fc1ccc(-c2[nH]cc(C3=CC4CCCCN4CC3)c2-c2ccncc2)cc1` (racemic) [Example 87, (±)-2-(4-Fluorophenyl)-4-(1,3,4,6,7,9a-hexahydro-2H-quinolizin-8-yl)-3-(pyridin-4-yl)-1H-pyrrole], the half-maximal inhibitory concentration (IC50) in test [1] (setting [3]) was found to be 0.31 µM.
For the compound `Fc1ccc(-c2[nH]cc(C3=CC4CCCN4CC3)c2-c2ccncc2)cc1F` (racemic) [Example 92, (±)-2-(3,4-Difluorophenyl)-4-(1,2,3,5,6,8a-hexahydroindolizin-7-yl)-3-(pyridin-4-yl)-1H-pyrrole], the half-inhibitory concentration (IC50) in test [1] (setting [3]) was 0.045 µM.
On to `FC(F)(F)c1cccc(-c2[nH]cc(C3=CC4CCCN4CC3)c2-c2ccncc2)c1` (racemic) [Example 94, (±)-4-(1,2,3,5,6,8a-Hexahydroindolizin-7-yl)-3-(pyridin-4-yl)-2-(3-trifluoromethylphenyl)-1H-pyrrole], for which the half-maximal inhibitory concentration (IC50) in test [1] (setting [3]) stood at 0.031 µM.
With `Fc1ccc(-c2[nH]c(C3CCNCC3)cc2-c2ccncc2)cc1` [Compound A, reference compound], the half-inhibitory concentration (IC50) in test [1] (setting [3]) and in test [1] (setting [4]) was 1.9 µM each time.
In the case of `Fc1ccc(-c2ncn(C3CCNCC3)c2-c2ccncc2)cc1` [Compound B, reference compound], the IC50 in test [1] (setting [3]) and in test [1] (setting [4]) was 1.73 µM each time.
As for `CO[C@@H]1C[C@H]2C=C(c3c[nH]c(-c4ccc(F)cc4)c3-c3ccncc3)CCN2C1` [Example 2′, 2-(4-Fluorophenyl)-4-[(2R,8aS)-2-methoxy-1,2,3,5,6,8a-hexahydroindolizin-7-yl]-3-(pyridin-4-yl)-1H-pyrrole], the half-maximal inhibitory concentration (IC50) in test [2] came to 31 nM; in test [1] (setting [4]), 0.062 µM.
As to `O[C@@H]1C[C@H]2C=C(c3c[nH]c(-c4ccc(F)cc4)c3-c3ccncc3)CCN2C1` [Example 4′, 2-(4-Fluorophenyl)-4-[(2R,8aS)-2-hydroxy-1,2,3,5,6,8a-hexahydroindolizin-7-yl]-3-(pyridin-4-yl)-1H-pyrrole], the IC50 in test [2] came out at 41 nM; in test [1] (setting [4]), 0.054 µM.
As to `Fc1ccc(-c2[nH]cc(C3=C[C@@H]4C[C@H](Cl)CN4CC3)c2-c2ccncc2)cc1` [Example 6′, 4-[(2S,8aS)-2-Chloro-1,2,3,5,6,8a-hexahydroindolizin-7-yl]-2-(4-fluorophenyl)-3-(pyridin-4-yl)-1H-pyrrole], the half-inhibitory concentration (IC50) in test [1] (setting [4]) was 0.027 µM.
Consider `Fc1ccc(-c2[nH]cc(C3=C[C@@H]4CC5(CN4CC3)OCCO5)c2-c2ccncc2)cc1` [Example 14′, 4-[(8aS)-2,2-Ethylenedioxy-1,2,3,5,6,8a-hexahydroindolizin-7-yl]-2-(4-fluorophenyl)-3-(pyridin-4-yl)-1H-pyrrole], for which the half-inhibitory concentration (IC50) in test [2] is 9.2 nM; in test [1] (setting [4]), 0.004 µM.
Take `Fc1ccc(-c2[nH]cc(C3=C[C@@H]4CCCN4CC34CC4)c2-c2ccncc2)cc1` [Example 19′, 4-[Cyclopropanespiro-6′-[(8a′S)-1′,2′,3′,5′,6′,8a′-hexahydroindolizin]-7′-yl]-2-(4-fluorophenyl)-3-(pyridin-4-yl)-1H-pyrrole]: the figures for the 50% inhibitory concentration (IC50) in test [2] and in test [1] (setting [4]) were 8.3 nM and 0.044 µM, respectively.
In the same order, the values of `CO[C@H]1C[C@H]2C=C(c3c[nH]c(-c4ccc(F)cc4)c3-c3ccncc3)CCN2C1` [Example 21′, 2-(4-Fluorophenyl)-4-[(2S,8aS)-2-methoxy-1,2,3,5,6,8a-hexahydroindolizin-7-yl)-3-(pyridin-4-yl)-1H-pyrrole] are 18 nM and 0.046 µM.
In the case of `C=C1C[C@H]2C=C(c3c[nH]c(-c4ccc(F)cc4)c3-c3ccncc3)CCN2C1` [Example 23′, 2-(4-Fluorophenyl)-4-[(8aS)-2-methylidene-1,2,3,5,6,8a-hexahydroindolizin-7-yl]-3-(pyridin-4-yl)-1H-pyrrole], the IC50 came to 3.8 nM in test [2] and 0.0037 µM in test [1] (setting [4]).
With `CC1(C)C[C@H]2C=C(c3c[nH]c(-c4ccc(F)cc4)c3-c3ccncc3)CCN2C1` [Example 27′], the results for the IC50 in test [2] and in test [1] (setting [4]) were 1.4 nM and 0.0038 µM, respectively.
`CS[C@H]1C[C@H]2C=C(c3c[nH]c(-c4ccc(F)cc4)c3-c3ccncc3)CCN2C1` [Example 29′, 2-(4-Fluorophenyl)-4-[(2S,8aS)-2-methylthio-1,2,3,5,6,8a-hexahydroindolizin-7-yl]-3-(pyridin-4-yl)-1H-pyrrole]: the values for the IC50 in test [2] and in test [1] (setting [4]) were 1 nM and 0.0036 µM, respectively.
As to `CCCCS[C@H]1C[C@H]2C=C(c3c[nH]c(-c4ccc(F)cc4)c3-c3ccncc3)CCN2C1` [Example 34′, 4-[(2S,8aS)-2-Butylthio-1,2,3,5,6,8a-hexahydroindolizin-7-yl)-2-(4-fluorophenyl)-3-(pyridin-4yl)-1H-pyrrole], the concentration for half-maximal inhibition (IC50) in test [2] is 49 nM; in test [1] (setting [4]) it was 0.046 µM.
On to `CCS[C@H]1C[C@H]2C=C(c3c[nH]c(-c4ccc(F)cc4)c3-c3ccncc3)CCN2C1` [Example 36′, 4-[(2S,8aS)-2-Ethylthio-1,2,3,5,6,8a-hexahydroindolizin-7-yl]-2-(4-fluorophenyl)-3-(pyridin-4-yl)-1H-pyrrole], for which the values for the IC50 in test [2] and in test [1] (setting [4]) were 26 nM and 0.018 µM, respectively.
On to `CC=C1C[C@H]2C=C(c3c[nH]c(-c4ccc(F)cc4)c3-c3ccncc3)CCN2C1` [Example 37′, 4-[(8aS)-2-Ethylidene-1,2,3,5,6,8a-hexahydroindolizin-7-yl]-2-(4-fluorophenyl)-3-(pyridin-4-yl)-1H-pyrrole], for which the half-maximal inhibitory concentration (IC50) in test [2] turned out to be 58 nM; in test [1] (setting [4]) it was 0.01 µM.
`Fc1ccc(-c2[nH]cc(C3=CCN(CCc4ccccc4)CC3)c2-c2ccncc2)cc1` [Example 58, 2-(4-Fluorophenyl)-4-(1-phenethyl-1,2,3,6-tetrahydropyridin-4-yl)-3-(pyridin-4-yl)-1H-pyrrole]: the concentration for half-maximal inhibition (IC50) in test [1] (setting [3]) was determined as 0.089 µM.
Consider `Fc1ccc(-c2[nH]cc(C3=C[C@@H]4CCCN4CC3)c2-c2ccncc2)cc1` [Example 83, (−)-2-(4-Fluorophenyl)-4-(1,2,3,5,6,8a-hexahydroindolizin-7-yl)-3-(pyridin-4-yl)-1H-pyrrole], for which the half-maximal inhibitory concentration (IC50) in test [1] (setting [3]) is 0.026 µM.
